In brackets after ≈: the same amount, converted by molar mass. Read-outs that look alike come from different tables or passages of the source.
Assays:
LXRα = target: T1, LXRα (Homo sapiens, UniProt Q13133); test: Gal4-hybrid reporter gene assay LXRα in HEK293T cells; type: cell-based; conditions: 10 μM; printed as both LXR subtypes
T1 construct: pFA-CMV-hLXRα-LBD; expressed in transfected cells; host or cells: HEK293T
T1 sequence (Q13133 209-447 limits assumed): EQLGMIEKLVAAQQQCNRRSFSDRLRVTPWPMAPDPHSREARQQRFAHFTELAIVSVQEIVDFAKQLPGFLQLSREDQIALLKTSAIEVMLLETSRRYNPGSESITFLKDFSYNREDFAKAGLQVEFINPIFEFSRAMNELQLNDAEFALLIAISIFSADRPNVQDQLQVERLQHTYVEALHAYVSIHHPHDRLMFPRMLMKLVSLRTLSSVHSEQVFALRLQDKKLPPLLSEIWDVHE
Source text: (§1) Hybrid reporter gene assays for PPARα/γ/δ, LXRα/β, RXRα/β/γ, RARα/β/γ, VDR and PXR Plasmids: The Gal4-fusion receptor plasmids pFA-CMV-hPPARα-LBD^52, pFA-CMV-hPPARγ-LBD^52, pFA-CMV-hPPARδ-LBD^52, pFA-CMV-hLXRα-LBD^32 and pFA-CMV-hLXRβ-LBD^32 have been reported previously. […] Frame and sequence of all fusion receptors were verified by sequencing. pFR-Luc (Stratagene) was used as reporter plasmid and pRL-SV40 (Promega) for normalization of transfection efficiency and cell growth.
(§2) Assay procedure: HEK293T cells were grown in DMEM high glucose, supplemented with 10% FCS, sodium pyruvate (1 mM), penicillin (100 U/mL) and streptomycin (100 μg/mL) at 37° C. and 5% CO2. The day before transfection, HEK293T cells were seeded in 96-well plates (2.5·10^4 cells/well). Before transfection, medium was changed to Opti-MEM without supplements. Transient transfection was carried out using Lipofectamine LTX reagent (Invitrogen) according to the manufacturer's protocol with pFR-Luc (Stratagene), pRL-SV40 (Promega) and pFA-CMV-hRXRα-LBD. 5 h after transfection, medium was changed to Opti-MEM supplemented with penicillin (100 U/mL), streptomycin (100 μg/mL), now additionally containing 0.1% DMSO and the respective test compound or 0.1% DMSO alone as untreated control. […] Luminescence was measured with an Infinite M200 luminometer (Tecan Deutschland GmbH). […]

recombinant human sEH = target: T2, recombinant human sEH (Homo sapiens, UniProt P34913); test: fluorescence-based sEH activity assay with PHOME substrate; type: biochemical
T2 sequence (P34913 1-555): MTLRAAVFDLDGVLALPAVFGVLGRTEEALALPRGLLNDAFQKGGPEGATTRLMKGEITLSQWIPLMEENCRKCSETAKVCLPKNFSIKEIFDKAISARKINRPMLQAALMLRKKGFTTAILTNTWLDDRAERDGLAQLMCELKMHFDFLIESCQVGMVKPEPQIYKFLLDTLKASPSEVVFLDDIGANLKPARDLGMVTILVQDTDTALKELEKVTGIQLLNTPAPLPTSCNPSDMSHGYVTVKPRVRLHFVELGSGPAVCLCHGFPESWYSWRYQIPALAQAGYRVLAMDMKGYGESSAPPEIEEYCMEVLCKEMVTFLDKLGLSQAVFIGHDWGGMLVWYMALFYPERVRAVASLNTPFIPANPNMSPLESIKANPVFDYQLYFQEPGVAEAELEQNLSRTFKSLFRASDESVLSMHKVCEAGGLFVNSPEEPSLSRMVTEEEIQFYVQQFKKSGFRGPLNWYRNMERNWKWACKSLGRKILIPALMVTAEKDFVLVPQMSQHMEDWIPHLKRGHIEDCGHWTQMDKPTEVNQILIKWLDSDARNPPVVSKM
Source text: This assay is based on a reporter construct containing a firefly luciferase under the control of the FXR response element from bile salt export protein (BSEP). FXR and its hetero dimer partner retinoid X receptor (RXR) as expression constructs under the control of a CMV promoter as well as a constitutively expressed renilla luciferase (SV40 promoter) for normalization and toxicity control were co-transfected. […] The sEH inhibitory potency of the test compounds was quantified in a fluorescence-based assay using recombinant enzyme and the fluorogenic sEH substrate PHOME^37 that is hydrolyzed to a fluorescent 6-methoxynaphtaldehyde by sEH.
The sEH inhibitory potency of the compounds were determined in a fluorescence-based 96-well sEH activity assay using recombinant human enzyme^50,51. Non-fluorescent PHOME (3-phenylcyano-(6-methoxy-2-naphthalenyl)methyl ester 2-oxiraneacetic acid; Cayman Chemicals) which can be hydrolyzed by the sEH to fluorescent 6-methoxynaphthaldehyde served as substrate. Recombinant human sEH (in Bis-Tris buffer, pH 7, with 0.1 mg/mL BSA containing a final concentration of 0.01% Triton-X 100) was pre-incubated with test compounds (in DMSO, final DMSO concentration: 1%) for 30 min at room temperature. […] A blank control (no protein and no compound) as well as a positive control (no compound) were executed. All experiments were conducted in triplicate and repeated in at least three independent experiments. For IC50 calculation, dose-response curves of increasing compound concentrations were recorded.

[1] = tested on: related nuclear receptors (PPARs, LXRs, RXRs, RARs, PXR and VDR); test: selectivity profile in Gal4-hybrid reporter gene assays (panel statement); type: cell-based, human; conditions: except PPARγ
Source text: as §1, §2

PPARδ = target: T3, PPARδ (Homo sapiens, UniProt Q03181); test: Gal4-hybrid reporter gene assay PPARδ in HEK293T cells; type: cell-based; conditions: 10 μM
T3 construct: pFA-CMV-hPPARδ-LBD; expressed in transfected cells; host or cells: HEK293T
T3 sequence (Q03181 211-439 limits assumed): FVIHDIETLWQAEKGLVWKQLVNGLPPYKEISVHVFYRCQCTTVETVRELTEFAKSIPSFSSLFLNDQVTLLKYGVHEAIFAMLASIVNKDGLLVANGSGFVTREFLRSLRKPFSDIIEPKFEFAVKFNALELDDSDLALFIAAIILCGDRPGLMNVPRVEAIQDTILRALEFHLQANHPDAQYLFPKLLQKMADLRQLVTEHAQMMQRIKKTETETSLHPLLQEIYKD
Source text: as §1, §2

aqueous solubility = type: physicochemical; conditions: LLOQ 0.1 μg/mL

With `CC(C)(C)c1ccc(C(=O)NCc2ccc(NS(C)(=O)=O)cc2Cl)cc1` [compound 57, 4-(tert-Butyl)-N-(2-chloro-4-(methylsulfonamido)benzyl)benzamide] the “activity on LXRα” value (LXRα) was “inactive”, the IC50 (recombinant human sEH; read-out: IC50 for sEH inhibition) was 4.1 ± 0.4 nM and the IC50 (recombinant human sEH; recombinant human sEH, PHOME, read-out: sEH inhibition IC50) was 4.1 ± 0.4 nM. For the same compound, the “activity on related nuclear receptors” value [1] was “inactive”, the “activity on PPARδ” value (PPARδ) was “inactive” and the aqueous solubility (aqueous solubility) was 1.5 µg/mL (≈ 3.8 µM).

— patent publication US20200172473A1, “DUAL MODULATORS OF FARNESOID X RECEPTOR AND SOLUBLE EPOXIDE HYDROLASE” (JOHANN WOLFGANG GOETHE-UNIVERSITÄT FRANKFURT AM MAIN, priority 2017, published 2020)
